Data on 23 compounds can be found in patent publication US9108921B2, “Therapeutic compounds and compositions” (AGIOS PHARMACEUTICALS, INC, priority 2014, dated 2015).

For test [1], the target named is PKR R532W (Homo sapiens, UniProt P30613, R532W). The test can be described thus: PKR Mutant Assay, AC50 against PKR R532W. The test is classed as biochemical. The conditions noted are these: mutant PKR R532W enzyme. The essentials:
(§1)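 Steps: compound added to wells, then reaction mix lacking ADP; 60 min room-temperature hold; ADP (0.22-1.65 mM) added to start; A340 monitored at room temperature via PEP/LDH/NADH coupling. Top final compound concentration 100 μM, 3-fold dilutions over 11 points.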

The target of test [2] is T1, PKR WT (Homo sapiens, UniProt P30613). Briefly: PKR WT enzymatic AC50 assay. The settings on record: wild type PKR. It is filed as biochemical. The essentials:
as §1

Test [3] addresses T1, PKR WT. The test can be described thus: PKR WT cell based AC50 assay. The conditions noted are these: wild type PKR.
For test [4], the target named is PKR R510Q (Homo sapiens, UniProt P30613, R510Q). Briefly: PKR Mutant Assay, AC50 against PKR R510Q. The test is classed as biochemical. The conditions noted are these: mutant PKR R510Q enzyme. The essentials: as §1
Sequence of PKR R510Q (P30613 whole entry R510Q): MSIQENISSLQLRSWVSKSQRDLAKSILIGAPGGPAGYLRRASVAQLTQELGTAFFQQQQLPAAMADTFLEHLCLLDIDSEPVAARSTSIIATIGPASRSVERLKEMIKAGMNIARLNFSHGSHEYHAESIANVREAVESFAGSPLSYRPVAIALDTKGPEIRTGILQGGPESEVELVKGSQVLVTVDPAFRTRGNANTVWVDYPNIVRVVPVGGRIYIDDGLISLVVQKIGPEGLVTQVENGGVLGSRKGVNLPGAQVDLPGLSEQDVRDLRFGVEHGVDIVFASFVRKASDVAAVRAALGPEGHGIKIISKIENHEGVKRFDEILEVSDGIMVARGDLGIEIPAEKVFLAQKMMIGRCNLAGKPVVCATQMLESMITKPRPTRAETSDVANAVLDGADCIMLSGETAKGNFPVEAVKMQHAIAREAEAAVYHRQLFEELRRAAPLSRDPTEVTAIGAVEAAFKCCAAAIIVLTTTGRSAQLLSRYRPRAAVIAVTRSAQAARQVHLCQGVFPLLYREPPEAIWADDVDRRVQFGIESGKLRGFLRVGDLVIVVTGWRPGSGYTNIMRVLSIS

Sequence of PKR R532W (P30613 whole entry R532W): as the sequence (P30613 whole entry R510Q) above, with Q510R, R532W counted along it
T1 sequence (P30613 whole entry): as the sequence (P30613 whole entry R510Q) above, with Q510R counted along it

As usually defined, the AC50 is the concentration at which the activity in the assay is half-maximal. Read a high AC50 as activity only at high concentration. For the compound `O=C(c1ccc(NS(=O)(=O)c2cccc3cccnc23)cc1)N1CCC(O)(c2cccc(F)c2F)CC1` [Compound 100, N-[4-[4-(2,3-difluorophenyl)-4-hydroxy-piperidine-1-carbonyl]phenyl]quinoline-8-sulfonamide], the AC50 in test [1], in test [2], in test [3] and in test [4] was below 100 nM in each case.

Take `Cc1cc(C(=O)N2CCC(O)(Cc3ccccc3)CC2)ccc1NS(=O)(=O)c1cccc2cccnc12` [Compound 101, N-(4-(4-benzyl-4-hydroxypiperidine-1-carbonyl)-2-methylphenyl)quinoline-8-sulfonamide]: the AC50 in test [1], in test [2], in test [3] and in test [4] was below 100 nM in each case.

As for `O=C(c1ccc(NS(=O)(=O)c2cccc3c2OCCC3)cc1)N1CCC(O)(c2ccccc2Cl)CC1` [Compound 102, N-(4-(4-(2-chlorophenyl)-4-hydroxypiperidine-1-carbonyl)phenyl)chroman-8-sulfonamide], the AC50 in test [1], in test [2], in test [3] and in test [4] was below 100 nM each time.

Take `Cc1ccccc1C1(O)CCN(C(=O)c2ccc(NS(=O)(=O)c3cccc4cccnc34)cc2)CC1` [Compound 103, N-(4-(4-hydroxy-4-(o-tolyl)piperidine-1-carbonyl)phenyl)quinoline-8-sulfonamide]: the AC50 in test [1], in test [2], in test [3] and in test [4] was below 100 nM in each case.

Regarding `Cc1cc(C(=O)N2CCC(O)(c3ccccc3Cl)CC2)ccc1NS(=O)(=O)c1cccc2cccnc12` [Compound 104, N-(4-(4-(2-chlorophenyl)-4-hydroxypiperidine-1-carbonyl)-2-methylphenyl)quinoline-8-sulfonamide], the half-maximal activity concentration (AC50) in test [1], in test [2], in test [3] and in test [4] was below 100 nM in each case.

For the compound `O=C(c1ccc(NS(=O)(=O)c2cccc3cccnc23)cc1)N1CCC(O)(Cc2cccc(F)c2)CC1` [Compound 105, N-(4-(4-(3-fluorobenzyl)-4-hydroxypiperidine-1-carbonyl)phenyl)quinoline-8-sulfonamide], the AC50 in test [1], in test [2], in test [3] and in test [4] was below 100 nM in each case.

Turning to `Cc1ccccc1CC1(O)CCN(C(=O)c2ccc(NS(=O)(=O)c3cccc4cccnc34)cc2)CC1` [Compound 108, N-(4-(4-hydroxy-4-(2-methylbenzyl)piperidine-1-carbonyl)phenyl)quinoline-8-sulfonamide], the half-maximal activity concentration (AC50) in test [1], in test [2], in test [3] and in test [4] was below 100 nM throughout.

For `O=C(c1ccc(NS(=O)(=O)c2cccc3cccnc23)cc1)N1CCC(O)(Cc2ccccc2C(F)(F)F)CC1` [Compound 109, N-(4-(4-hydroxy-4-(2-(trifluoromethyl)benzyl)piperidine-1-carbonyl)phenyl)quinoline-8-sulfonamide], the AC50 in test [1], in test [2], in test [3] and in test [4] was below 100 nM throughout.

On to `O=C(c1ccc(NS(=O)(=O)c2cccc3cccnc23)cc1)N1CCC(O)(Cc2ccccc2F)CC1` [Compound 110, N-(4-(4-(2-fluorobenzyl)-4-hydroxypiperidine-1-carbonyl)phenyl)quinoline-8-sulfonamide], for which the AC50 in test [1], in test [2], in test [3] and in test [4] was below 100 nM throughout.

On to `O=C(c1ccc(NS(=O)(=O)c2cccc3cccnc23)cc1)N1CCC(O)(c2ccc(F)cc2Cl)CC1` [Compound 111, N-[4-[4-(2-chloro-4-fluoro-phenyl)-4-hydroxy-piperidine-1-carbonyl]phenyl]quinoline-8-sulfonamide], for which the AC50 in test [1], in test [2], in test [3] and in test [4] was below 100 nM throughout.

Consider `COc1cc(NS(=O)(=O)c2cccc3cccnc23)ccc1C(=O)N1CCC(O)(Cc2ccccc2)CC1` [Compound 112, N-(4-(4-benzyl-4-hydroxypiperidine-1-carbonyl)-3-methoxyphenyl)quinoline-8-sulfonamide], for which the AC50 was below 100 nM in test [1], below 100 nM in test [2], 101 to 1000 nM in test [3] and below 100 nM in test [4].

On to `O=C(c1ccc(NS(=O)(=O)c2cccc3cccnc23)cc1)N1CCC(O)(c2ccccc2C(F)F)CC1` [Compound 113, N-[4-[4-[2-(difluoromethyl)phenyl]-4-hydroxy-piperidine-1-carbonyl]phenyl]quinoline-8-sulfonamide], for which the concentration at half-maximal activity (AC50) in test [1], in test [2], in test [3] and in test [4] was below 100 nM each time.

Turning to `O=C(c1ccc(NS(=O)(=O)c2cccc3nccnc23)cc1)N1CCC(O)(Cc2ccccc2C(F)(F)F)CC1` [Compound 114, N-(4-(4-hydroxy-4-(2-(trifluoromethyl)benzyl)piperidine-1-carbonyl)phenyl)quinoxaline-5-sulfonamide], the AC50 in test [1], in test [2], in test [3] and in test [4] was below 100 nM each time.

For the compound `O=C(c1ccc(NS(=O)(=O)c2cccc3cccnc23)cc1F)N1CCC(O)(Cc2ccccc2)CC1` [Compound 115, N-(4-(4-benzyl-4-hydroxypiperidine-1-carbonyl)-3-fluorophenyl)quinoline-8-sulfonamide], the AC50 in test [1], in test [2], in test [3] and in test [4] was below 100 nM in each case.

Consider `COc1ccccc1CC1(O)CCN(C(=O)c2ccc(NS(=O)(=O)c3cccc4cccnc34)cc2)CC1` [Compound 116, N-(4-(4-hydroxy-4-(2-methoxybenzyl)piperidine-1-carbonyl)phenyl)quinoline-8-sulfonamide], for which the AC50 in test [1], in test [2], in test [3] and in test [4] was below 100 nM each time.

In the case of `CC(C)(C)CC1(O)CCN(C(=O)c2ccc(NS(=O)(=O)c3cccc4cccnc34)cc2)CC1` [Compound 117, N-(4-(4-hydroxy-4-neopentylpiperidine-1-carbonyl)phenyl)quinoline-8-sulfonamide], the AC50 in test [1], in test [2], in test [3] and in test [4] was below 100 nM in each case.

As to `Cc1cccc(CC2(O)CCN(C(=O)c3ccc(NS(=O)(=O)c4cccc5cccnc45)cc3)CC2)c1` [Compound 118, N-(4-(4-hydroxy-4-(3-methylbenzyl)piperidine-1-carbonyl)phenyl)quinoline-8-sulfonamide], the half-maximal activity concentration (AC50) in test [1] was below 100 nM; in test [2], below 100 nM; in test [3] it was below 100 nM; in test [4], 101 to 1000 nM.

With `Cc1cc(C(=O)N2CCC(O)(c3ccccc3Cl)CC2)ccc1NS(=O)(=O)c1cccc2nccnc12` [Compound 119, N-(4-(4-(2-chlorophenyl)-4-hydroxypiperidine-1-carbonyl)-2-methylphenyl)quinoxaline-5-sulfonamide], the AC50 in test [1], in test [2], in test [3] and in test [4] was below 100 nM each time.

On to `O=C(c1ccc(NS(=O)(=O)c2cccc3cccnc23)cc1)N1CCC(O)(Cc2c(F)cccc2F)CC1` [Compound 120, N-(4-(4-(2,6-difluorobenzyl)-4-hydroxypiperidine-1-carbonyl)phenyl)quinoline-8-sulfonamide], for which the AC50 in test [1], in test [2], in test [3] and in test [4] was below 100 nM throughout.

As for `CC1(CC2(O)CCN(C(=O)c3ccc(NS(=O)(=O)c4cccc5cccnc45)cc3)CC2)CC1` [Compound 121, N-(4-(4-hydroxy-4-((1-methylcyclopropyl)methyl)piperidine-1-carbonyl)phenyl)quinoline-8-sulfonamide], the AC50 in test [1], in test [2], in test [3] and in test [4] was below 100 nM each time.

With `O=C(c1ccc(NS(=O)(=O)c2cccc3cccnc23)cc1)N1CCC(O)(c2ccccc2Cl)CC1` [Compound 122, N-(4-(4-(2-chlorophenyl)-4-hydroxypiperidine-1-carbonyl)phenyl)quinoline-8-sulfonamide], the AC50 in test [1], in test [2], in test [3] and in test [4] was below 100 nM each time.

`O=C(c1ccc(NS(=O)(=O)c2cccc3cccnc23)cc1)N1CCC(CO)(Cc2ccccc2)CC1` [Compound 149, N-(4-(4-benzyl-4-(hydroxymethyl)piperidine-1-carbonyl)phenyl)quinoline-8-sulfonamide]: the AC50 in test [1], in test [2] and in test [3] was below 100 nM throughout.

In the case of `CS(=O)(=O)c1cccc(C2(O)CCN(C(=O)c3ccc(NS(=O)(=O)c4cccc5cccnc45)cc3)CC2)c1` [Compound 182, N-(4-(4-hydroxy-4-(3-(methylsulfonyl)phenyl)piperidine-1-carbonyl)phenyl)quinoline-8-sulfonamide], the AC50 in test [2] was below 100 nM; in test [3], below 100 nM; in test [4] it was 1010 to 10000 nM.
